In patent US8207216B2, “Benzofuran-3-yl(indol-3-yl) maleimides as potent GSK3 inhibitors” (The Board of Trustees of the University of Illinois, priority 2006, dated 2012):

How the values were obtained:
PKCβ2 = PKCβ2 (Homo sapiens, UniProt P05771); assay: Inhibition of various kinases (% inhibition); format: biochemical
From the text: (§1) Additional examples of selectivity are illustrated in Table 4.

GSK3α = GSK3α (Homo sapiens, UniProt P49840); assay: Inhibition of various kinases (% inhibition); format: biochemical
Sequence of GSK3α (P49840 whole entry, species assumed): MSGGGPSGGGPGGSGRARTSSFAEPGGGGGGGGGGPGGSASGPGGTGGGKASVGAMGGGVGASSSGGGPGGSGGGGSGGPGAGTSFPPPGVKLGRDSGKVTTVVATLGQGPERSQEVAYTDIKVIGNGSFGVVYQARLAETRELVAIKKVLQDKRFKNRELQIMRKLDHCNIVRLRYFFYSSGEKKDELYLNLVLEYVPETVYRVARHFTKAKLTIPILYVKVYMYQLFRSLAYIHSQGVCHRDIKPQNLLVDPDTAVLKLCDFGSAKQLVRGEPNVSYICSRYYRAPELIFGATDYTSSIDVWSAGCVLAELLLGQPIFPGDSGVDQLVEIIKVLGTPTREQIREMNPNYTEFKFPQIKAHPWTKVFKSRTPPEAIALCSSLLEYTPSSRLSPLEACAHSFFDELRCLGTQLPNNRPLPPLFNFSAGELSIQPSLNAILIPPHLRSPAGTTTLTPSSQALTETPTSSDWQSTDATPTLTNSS
From the text: as §1

PDK1 = molecular target: T1, PDK1 (Homo sapiens, UniProt O15530); assay: Inhibition of various kinases (% inhibition); format: biochemical
T1 sequence (O15530 1-556): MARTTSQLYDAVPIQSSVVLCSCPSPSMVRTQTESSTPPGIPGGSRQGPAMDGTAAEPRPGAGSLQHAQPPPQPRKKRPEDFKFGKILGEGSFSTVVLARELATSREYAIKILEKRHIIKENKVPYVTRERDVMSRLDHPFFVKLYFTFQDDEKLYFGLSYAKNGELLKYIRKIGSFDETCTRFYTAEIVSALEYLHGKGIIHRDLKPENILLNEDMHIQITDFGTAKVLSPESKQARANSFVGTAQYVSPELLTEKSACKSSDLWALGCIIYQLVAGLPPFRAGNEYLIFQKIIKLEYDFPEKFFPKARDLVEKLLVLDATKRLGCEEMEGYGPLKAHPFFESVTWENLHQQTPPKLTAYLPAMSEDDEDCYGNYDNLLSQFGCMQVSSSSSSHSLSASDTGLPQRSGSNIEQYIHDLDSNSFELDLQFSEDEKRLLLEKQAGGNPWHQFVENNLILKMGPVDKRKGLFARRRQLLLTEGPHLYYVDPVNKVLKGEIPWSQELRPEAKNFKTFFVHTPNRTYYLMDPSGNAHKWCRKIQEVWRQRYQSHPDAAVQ
From the text: as §1

CDK2 = CDK2 (Homo sapiens, UniProt P24941); assay: Inhibition of various kinases (% inhibition); format: biochemical
From the text: as §1

[1] = molecular target: T2, recombinant human His6-GSK-3β (Homo sapiens, UniProt P49841); assay: GSK-3β kinase assay, [γ32P] transfer to primed glycogen synthase peptide; format: biochemical; conditions: 10 μM ATP; 10 μM pGSM peptide; 30 minutes at 30° C.; read-out: IC50 (nM), GSK-3β inhibition;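 further: phosphate incorporation quantified by liquid scintillation counting of the filters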
T2 construct: His6; purchased EMD Biosciences
T2 sequence (P49841 whole entry): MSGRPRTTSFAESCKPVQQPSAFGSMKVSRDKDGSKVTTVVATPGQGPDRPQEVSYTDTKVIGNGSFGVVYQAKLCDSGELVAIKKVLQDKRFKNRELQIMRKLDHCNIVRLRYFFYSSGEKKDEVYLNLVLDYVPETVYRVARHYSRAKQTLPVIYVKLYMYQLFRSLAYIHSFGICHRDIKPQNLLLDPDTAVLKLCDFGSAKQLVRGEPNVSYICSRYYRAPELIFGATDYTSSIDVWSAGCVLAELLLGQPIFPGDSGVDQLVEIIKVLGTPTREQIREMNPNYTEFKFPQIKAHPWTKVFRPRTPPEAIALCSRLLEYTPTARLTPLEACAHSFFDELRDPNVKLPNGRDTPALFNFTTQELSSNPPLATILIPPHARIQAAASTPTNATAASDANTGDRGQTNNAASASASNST

C57BL/6J mice = assay: Amphetamine/chlordiazepoxide hyperactivity model of mania, open field locomotor activity; format: in vivo; conditions: 5-ING-135 50 mg/kg, 5 min pretreatment; amphetamine 4 mg/kg + chlordiazepoxide 2.5 mg/kg; 60 min
Protocol: Hyperactivity models are often used to mimic the mania associated with bipolar disorder.
Certain benzofuran-based ligands of this invention were studied in a novel mouse model of mania that has recently been validated with several clinically effective mood stabilizers. […] Mice were then injected with amphetamine (4 mg/kg) or amphetamine (4 mg/kg) and chlordiazepoxide (2.5 mg/kg) and locomotor activity was monitored for 60 min. The open field is a square box surrounded by an array of infra-red beams and their behavior is automatically recorded for 60 minutes in the open field test chamber (10.75″×10.75″×8″H with infra-red (I/R) array, model ENV 510, MED Associates). After this period the animals were returned to their home cages and then to the main colony.
Control treatments are as indicated. FIG. 1B illustrates similar locomotion activity data of treated mice measured in cm over 5 minute intervals for 60 minutes.

MIAPaCa-2 = assay: Antiproliferation MTS assay, pancreatic cancer cells; format: cell-based; conditions: Homo sapiens, MIA PaCa-2; 72 hrs, MTS
CDK-2/cyclinE = CDK-2/cyclinE (Homo sapiens, UniProt P24941); assay: CDK-2/CyclinE inhibition (Reaction Biology); format: biochemical; conditions: for IC50: tested at Reaction Biology, Inc.
[2] = system: pancreatic cancer cell lines; assay: Proliferation and survival of pancreatic cancer cells (overall statements); format: cell-based; conditions: based on data of Table 5
Protocol: (§2) The pancreatic cancer cell lines BxPc-3, HupT3, MiaPaCa-2, Panc 04.03, and SU86.86 were obtained from ATCC (Rockville, Md.) and were grown in medium (DMEM or RPMI) containing 10% fetal calf serum and L-glutamine. Pancreatic cancer cells were plated out in duplicate into 6-wells of a 96-well microtiter plate at 2.5−4×10^3 cells per well. Four-hours post plating, individual wells were treated with diluent (DMSO) or varying concentrations of commercial compounds, AR-A014418 and SB216763, or the indicated GSK inhibitors of this invention from a concentration of 1 nM to 50 microM. […] The IC50s were calculated using XLfit (IDBS Limited, Guildford, UK).

HupT3 = assay: Antiproliferation MTS assay, pancreatic cancer cells; format: cell-based; conditions: Homo sapiens
SKOV3 = assay: Antiproliferation assay, ovarian cancer cells; format: cell-based; conditions: Homo sapiens, SK-OV-3; ovarian cancer cell proliferation
Protocol: as §2
(§3) Similar antiproliferation assays were performed using ovarian cancer cells. Compound 40 is of particular interest for inhibition of ovarian cancer cell proliferation.

OVCA432 = assay: Antiproliferation assay, ovarian cancer cells; format: cell-based; conditions: ovarian cancer cell proliferation
Protocol: as §2, §3

CDK-2/cyclinA = CDK-2/cyclinA (Homo sapiens, UniProt P24941); assay: CDK panel (Reaction Biology); format: biochemical; conditions: tested at Reaction Biology, Inc.
CDK-4/cyclinD1 = CDK-4/cyclinD1 (Homo sapiens, UniProt P11802); assay: CDK panel (Reaction Biology); format: biochemical; conditions: tested at Reaction Biology, Inc.
Sequence of CDK-4/cyclinD1 (P11802 whole entry, species assumed): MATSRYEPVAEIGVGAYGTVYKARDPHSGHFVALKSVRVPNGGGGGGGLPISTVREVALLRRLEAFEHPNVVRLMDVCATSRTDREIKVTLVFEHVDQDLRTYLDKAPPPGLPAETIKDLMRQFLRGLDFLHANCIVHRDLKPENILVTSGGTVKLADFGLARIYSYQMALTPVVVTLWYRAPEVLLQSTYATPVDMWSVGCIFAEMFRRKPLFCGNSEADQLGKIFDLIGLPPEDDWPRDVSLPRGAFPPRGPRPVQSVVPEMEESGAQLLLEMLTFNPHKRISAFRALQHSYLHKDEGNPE
Sequence of CDK-4/cyclinD1 (P24385 whole entry partner, species assumed): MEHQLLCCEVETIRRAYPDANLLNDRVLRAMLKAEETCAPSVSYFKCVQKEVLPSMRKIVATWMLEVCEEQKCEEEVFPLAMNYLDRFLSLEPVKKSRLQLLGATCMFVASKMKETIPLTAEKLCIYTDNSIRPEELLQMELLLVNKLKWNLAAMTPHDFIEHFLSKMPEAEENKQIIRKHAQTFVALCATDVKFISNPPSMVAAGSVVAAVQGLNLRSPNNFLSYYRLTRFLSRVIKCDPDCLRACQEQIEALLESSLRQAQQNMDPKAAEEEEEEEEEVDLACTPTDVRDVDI

CDK-6/cyclinD3 = CDK-6/cyclinD3 (Homo sapiens, UniProt Q00534); assay: CDK panel (Reaction Biology); format: biochemical; conditions: tested at Reaction Biology, Inc.
Sequence of CDK-6/cyclinD3 (Q00534 whole entry, species assumed): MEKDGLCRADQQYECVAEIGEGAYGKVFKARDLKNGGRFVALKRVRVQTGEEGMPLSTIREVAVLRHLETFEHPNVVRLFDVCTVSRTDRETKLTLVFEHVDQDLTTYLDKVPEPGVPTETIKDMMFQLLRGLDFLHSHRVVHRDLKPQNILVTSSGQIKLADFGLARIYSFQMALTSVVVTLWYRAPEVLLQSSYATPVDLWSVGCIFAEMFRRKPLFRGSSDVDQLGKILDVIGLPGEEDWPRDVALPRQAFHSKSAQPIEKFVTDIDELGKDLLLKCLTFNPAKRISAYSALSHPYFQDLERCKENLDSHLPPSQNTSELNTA
Sequence of CDK-6/cyclinD3 (P30281 whole entry partner, species assumed): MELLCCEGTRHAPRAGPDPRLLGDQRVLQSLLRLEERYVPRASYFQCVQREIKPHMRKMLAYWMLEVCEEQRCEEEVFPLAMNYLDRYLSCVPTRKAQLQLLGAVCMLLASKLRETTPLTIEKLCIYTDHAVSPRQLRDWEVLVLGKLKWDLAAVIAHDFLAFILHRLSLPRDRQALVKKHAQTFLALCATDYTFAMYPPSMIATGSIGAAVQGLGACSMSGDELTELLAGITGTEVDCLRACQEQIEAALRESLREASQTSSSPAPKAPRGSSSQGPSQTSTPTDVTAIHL

CDK-1/cyclinB = CDK-1/cyclinB (Homo sapiens, UniProt P06493); assay: CDK panel (Reaction Biology); format: biochemical; conditions: tested at Reaction Biology, Inc.
Sequence of CDK-1/cyclinB (P06493 whole entry, species assumed): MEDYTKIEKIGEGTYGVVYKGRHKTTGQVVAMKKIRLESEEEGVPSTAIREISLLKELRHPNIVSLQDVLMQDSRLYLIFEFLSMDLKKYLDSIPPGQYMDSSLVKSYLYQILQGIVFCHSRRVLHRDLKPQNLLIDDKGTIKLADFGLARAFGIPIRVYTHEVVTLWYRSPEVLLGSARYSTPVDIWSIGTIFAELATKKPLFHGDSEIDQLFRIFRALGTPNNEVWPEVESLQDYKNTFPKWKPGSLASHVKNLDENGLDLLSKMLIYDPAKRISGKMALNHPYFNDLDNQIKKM
Sequence of CDK-1/cyclinB (P14635 whole entry partner, species assumed): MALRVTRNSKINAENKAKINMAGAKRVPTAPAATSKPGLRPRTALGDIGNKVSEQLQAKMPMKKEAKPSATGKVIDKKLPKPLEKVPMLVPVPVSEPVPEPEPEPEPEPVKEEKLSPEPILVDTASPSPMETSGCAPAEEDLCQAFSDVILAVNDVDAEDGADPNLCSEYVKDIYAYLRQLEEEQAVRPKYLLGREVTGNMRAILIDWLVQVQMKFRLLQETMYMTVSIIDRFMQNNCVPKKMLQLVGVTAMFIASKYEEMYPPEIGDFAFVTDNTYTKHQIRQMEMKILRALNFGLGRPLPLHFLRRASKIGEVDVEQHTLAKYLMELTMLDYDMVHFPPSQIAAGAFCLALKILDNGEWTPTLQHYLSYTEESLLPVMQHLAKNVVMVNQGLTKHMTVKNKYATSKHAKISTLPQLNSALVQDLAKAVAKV

Sequence of PKCβ2 (P05771 1-673 isoform P05771-2): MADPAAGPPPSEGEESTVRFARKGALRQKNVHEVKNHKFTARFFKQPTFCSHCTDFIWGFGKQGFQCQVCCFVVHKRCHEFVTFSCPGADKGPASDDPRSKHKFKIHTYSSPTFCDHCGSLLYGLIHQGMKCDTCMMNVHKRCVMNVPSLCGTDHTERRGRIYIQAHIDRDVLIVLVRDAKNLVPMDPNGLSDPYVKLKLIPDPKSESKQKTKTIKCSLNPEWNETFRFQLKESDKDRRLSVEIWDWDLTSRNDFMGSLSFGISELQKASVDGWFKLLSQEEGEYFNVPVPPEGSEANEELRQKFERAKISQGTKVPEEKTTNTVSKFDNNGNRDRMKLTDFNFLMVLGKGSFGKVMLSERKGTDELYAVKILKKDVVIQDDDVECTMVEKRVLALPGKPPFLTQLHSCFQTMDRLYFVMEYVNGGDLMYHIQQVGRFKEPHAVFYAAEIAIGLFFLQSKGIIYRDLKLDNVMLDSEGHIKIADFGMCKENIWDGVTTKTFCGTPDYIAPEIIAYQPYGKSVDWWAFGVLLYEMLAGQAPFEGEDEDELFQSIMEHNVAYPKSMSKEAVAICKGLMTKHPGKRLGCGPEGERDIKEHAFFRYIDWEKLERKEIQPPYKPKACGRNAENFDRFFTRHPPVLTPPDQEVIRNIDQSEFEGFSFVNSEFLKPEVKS

C#Cc1ccc2c(c1)c(C1=C(c3coc4ccccc34)C(=O)NC1=O)cn2C [Compound 36, 3-Benzofuran-3-yl-4-(5-ethynyl-1-methyl-1H-indol-3-yl)-pyrrole-2,5-dione]
inhibition at 1 µM (PKCβ2): 24% | inhibition at 10 µM (PKCβ2): 74% | inhibition at 1 µM (GSK3α): 89% | inhibition at 10 µM (GSK3α): 100% | inhibition at 1 µM (PDK1): 14% | inhibition at 10 µM (PDK1): 27% | inhibition at 1 µM (CDK2): 68% | inhibition at 10 µM (CDK2): 100% | IC50 [1]: 9.6 ± 4 nM | Inhibition of hyperactivity produced by amphetamine/chlordiazepoxide (locomotor activity) (C57BL/6J mice): exhibited inhibition of the hyperactivity | IC50 (MIAPaCa-2): > 50000 nM

C#CCOc1ccc2c(C3=C(c4cn(C)c5ccc(Br)cc45)C(=O)NC3=O)coc2c1 [Compound 23, 3-(5-Bromo-1-methyl-1H-indol-3-yl)-4-(6-prop-2-ynyloxy-benzofuran-3-yl)-pyrrole-2,5-dione]
inhibition at 1 µM (PKCβ2): 3% | inhibition at 10 µM (PKCβ2): 25% | inhibition at 1 µM (GSK3α): 84% | inhibition at 10 µM (GSK3α): 99% | inhibition at 1 µM (PDK1): 12% | inhibition at 10 µM (PDK1): 45% | inhibition at 1 µM (CDK2): 22% | inhibition at 10 µM (CDK2): 66% | IC50 [1]: 25.3 ± 2.4 nM

Cn1cc(C2=C(c3coc4ccccc34)C(=O)NC2=O)c2ccccc21 [Compound 1, 3-Benzofuran-3-yl-4-(1-methyl-1H-indol-3-yl)-pyrrole-2,5-dione]
IC50 Ratio CDK-2/cyclinE GSK-3β (CDK-2/cyclinE; selectivity ratio): 40 | IC50 (CDK-2/cyclinE): 1410 nM | IC50 [1]: 35 ± 9 nM | IC50 (MIAPaCa-2): 3000 nM | Inhibition of pancreatic cancer cell proliferation compared with AR-A014418 and SB216768 [2]: more effective inhibition of pancreatic cancer cell proliferation than these reference compounds

Cn1cc(C2=C(c3coc4ccc(F)cc34)C(=O)NC2=O)c2ccc(O)cc21 [Compound 46, 3-(5-Fluoro-benzofuran-3-yl)-4-(6-hydroxy-1-methyl-1H-indol-3-yl)-pyrrole-2,5-dione]
IC50 [1]: 14 ± 3 nM | Inhibition of hyperactivity produced by amphetamine/chlordiazepoxide (locomotor activity) (C57BL/6J mice): exhibited inhibition of the hyperactivity

O=C1NC(=O)C(c2cn(CCCO)c3ccc(Br)cc23)=C1c1coc2ccccc12 [Compound 21, 3-Benzofuran-3-yl-4-[5-bromo-1-(3-hydroxy-propyl)-1H-indol-3-yl]-pyrrole-2,5-dione]
inhibition at 1 µM (PKCβ2): 62% | inhibition at 10 µM (PKCβ2): 83% | inhibition at 1 µM (GSK3α): 62% | inhibition at 10 µM (GSK3α): 99% | inhibition at 1 µM (PDK1): 80% | inhibition at 10 µM (PDK1): 92% | inhibition at 1 µM (CDK2): 62% | inhibition at 10 µM (CDK2): 95% | IC50 [1]: 1.61 ± 0.09 nM

Cn1cc(C2=C(c3coc4ccccc34)C(=O)NC2=O)c2cc(I)ccc21 [Compound 28, 3-Benzofuran-3-yl-4-(5-iodo-1-methyl-1H-indol-3-yl)-pyrrole-2,5-dione]
IC50 (HupT3; HuP-T3, as reported in Gaisina et al. (2009) J. Med. Chem. 52(7), 1853-1863): > 50000 nM | IC50 (HupT3; HuP-T3, 72 hrs, MTS): > 50000 nM | IC50 (CDK-2/cyclinE): 1070 nM | IC50 [1]: 15.5 ± 3.5 nM | IC50 (SKOV3): 26700 nM | IC50 (OVCA432): 20000 nM

Cn1cc(C2=C(c3coc4cc(CO)ccc34)C(=O)NC2=O)c2cc(Br)ccc21 [Compound 22, 3-(5-Bromo-1-methyl-1H-indol-3-yl)-4-(6-hydroxymethyl-benzofuran-3-yl)-pyrrole-2,5-dione]
IC50 (CDK-2/cyclinA): 0.55 µM | IC50 (CDK-2/cyclinE): 337 nM | IC50 (CDK-4/cyclinD1): 1.08 µM | IC50 (CDK-6/cyclinD3): 0.51 µM | IC50 (SKOV3): 51500 nM | IC50 (OVCA432): 14200 nM | IC50 (CDK-1/cyclinB): 0.93 µM
